Here are results for three molecules from patent US11780832B2, “Lactivicin compounds, their preparation and use as antibacterial agents” (priority 2021, dated 2023).

As a reminder, the MIC is the lowest concentration that inhibits growth of the organism.

≈ marks a conversion by molar mass, not a printed value. Read-outs that look alike come from different tables or passages of the source.

Holding throughout (format): cell-based
Test [1] concerns Enterobacter cloacae species complex Elevated AmpC. Briefly: MIC against Elevated AmpC producing strains, compound alone. As for the experimental part:
(§1) Gram-negative and Gram-positive bacterial strains used during the in vitro minimum inhibitory concentration (MIC) determination were obtained either from the American Type Culture Collection (ATCC) or from clinical specimens. All strains were characterized genotypically and the respective antibiotic resistance markers for each strain were identified.
(§2) Isolates were sub-cultured onto appropriate media and stocked in skim milk at −80° C. Following two subcultures from frozen stock, in vitro antimicrobial susceptibility testing was performed using the Clinical and Laboratory Standards Institute (CLSI) broth microdilution method. Briefly, fresh cultures were suspended in culture media to give a final stock inoculum size of 5×10^7 colony forming units per milliliter of broth (CFU/mL). Test compounds were prepared at a stock solution concentration equal to 128 μg/mL, then diluted to give a final an initial working concentration of 32 μg/mL. 100 μL of the stock solutions were added to the first wells in a 96-well plate and were then diluted using a 2-fold dilution method to give a range of 32-0.025 μg/mL. 100 μL of the bacterial suspensions were then added to the 96-well plates to give a final working inoculum size of 5×10^5 CFU/mL. The final compound concentration range was 16-0.0125 μg/mL. […] MICs for comparator agents were determined using custom-designed, in-house prepared 96-well broth microdilution panels.

For test [2], the system named is Citrobacter freundii species complex Elevated AmpC. The description is as above. Particulars: row r16. On the procedure: as §1, §2
Test [3] has as its system Escherichia coli Elevated AmpC. The test is described as above. As for the experimental part: as §1, §2
The test system of test [4] is Citrobacter freundii species complex OXA-181. Briefly: MIC, CLSI broth microdilution. Particulars: Citrobacter freundii species complex, OXA-181; read-out: MIC. An outline of the steps: (§3)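 Genotyped isolates from ATCC or clinical sources were subcultured twice from −80 °C skim-milk stocks, then tested by CLSI broth microdilution. Compounds were serially diluted 2-fold to a final 16-0.0125 μg/mL, with a final inoculum of 5×10^5 CFU/mL.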
(In general: In broth dilution the organism is exposed to a series of concentrations in liquid medium.)

For test [5], the system named is Klebsiella pneumoniae KPC-3. Description: MIC, CLSI broth microdilution. Put shortly:
as §3

The subject of test [6] is Escherichia coli Empty pSMART plasmid. Briefly: MIC, CLSI broth microdilution. An outline of the steps:
as §3

The subject of test [7] is Klebsiella oxytoca KPC-2, TEM-1. Description: MIC, CLSI broth microdilution. Put shortly:
as §3

Test [8] concerns Escherichia coli Isogenic TEM-10. Briefly: MIC, CLSI broth microdilution. An outline of the steps:
(§4)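 Each strain carries identified resistance markers and was drawn from ATCC or clinical specimens. Susceptibility is tested per CLSI broth microdilution at a final inoculum of 5×10^5 CFU/mL, over a final compound range of 16-0.0125 μg/mL.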

Test [9] concerns Escherichia coli Isogenic TEM-26. Description: MIC, CLSI broth microdilution. An outline of the steps: as §4
Test [10] has as its system Escherichia coli pSMART_Ecloacae_AmpC. Briefly: MIC, CLSI broth microdilution. An outline of the steps: as §4

Take `Nc1nc(/C(=N/OC2(C(=O)O)CC2)C(=O)N[C@H]2CON(C3(C(=O)O)C[C@H](N4C(=O)c5cc(O)c(O)cc5C4=O)C(=O)O3)C2=O)ns1` (stereo partly drawn) [Cmpd 18, (4S)-2-[(4S)-4-{[(2Z)-2-(5-amino-1,2,4-thiadiazol-3-yl)-2-{[(1-carboxycyclopropyl)oxy]imino}acetyl]amino}-3-oxo-1,2-oxazolidin-2-yl]-4-(5,6-dihydroxy-1,3-dioxo-1,3-dihydro-2H-isoindol-2-yl)-5-oxooxolane-2-carboxylic acid]: the MIC is 1 µg/mL (≈ 1.51 µM) in test [1]; 4 µg/mL (≈ 6.05 µM) in [1] (strain of row r7); 0.25 µg/mL (≈ 0.378 µM) in test [1] (strain of row r20); 1 µg/mL (≈ 1.51 µM) in test [2]; 0.03 µg/mL (≈ 0.0454 µM) in [3] (strain of row r10); 0.25 µg/mL (≈ 0.378 µM) in test [3] (strain of row r11). Further, the MIC turned out to be 0.5 µg/mL (≈ 0.756 µM) in [3] (strain of row r12); 0.06 µg/mL (≈ 0.0907 µM) in test [3] (strain of row r13); 0.06 µg/mL (≈ 0.0907 µM) in test [3] (strain of row r14); 0.25 µg/mL (≈ 0.378 µM) in [3] (strain of row r15); 0.06 µg/mL (≈ 0.0907 µM) in test [4]; 0.06 µg/mL (≈ 0.0907 µM) in test [5] (KPC3, KPC-3, read-out: MIC). Also, the MIC in test [6] is 0.0149 µg/mL (≈ 0.0225 µM); in [7] (KPC-2, TEM-1, read-out: MIC), 0.0149 µg/mL (≈ 0.0225 µM).
On to `Nc1nc(/C(=N/OC2(C(=O)O)CCOCC2)C(=O)N[C@H]2CON(C3(C(=O)O)C[C@H](N4C(=O)c5cc(O)c(O)nc5C4=O)C(=O)O3)C2=O)cs1` (stereo partly drawn) [Cmpd 26, 4-({(Z)-[1-(2-amino-1,3-thiazol-4-yl)-2-({(4S)-2-[(4S)-2-carboxy-4-(2,3-dihydroxy-5,7-dioxo-5,7-dihydro-6H-pyrrolo[3,4-b]pyridin-6-yl)-5-oxooxolan-2-yl]-3-oxo-1,2-oxazolidin-4-yl}amino)-2-oxoethylidene]amino}oxy)oxane-4-carboxylic acid], for which the MIC in test [1] was 2 µg/mL (≈ 2.83 µM); in test [1] (strain of row r7), 4 µg/mL (≈ 5.67 µM); in test [1] (strain of row r20), 1 µg/mL (≈ 1.42 µM); in test [2] it was 1 µg/mL (≈ 1.42 µM); in test [3] (strain of row r10) it was 0.06 µg/mL (≈ 0.085 µM); in test [3] (strain of row r11) it was 0.5 µg/mL (≈ 0.709 µM). In addition, the minimal inhibitory concentration (MIC) worked out at 2 µg/mL (≈ 2.83 µM) in test [3] (strain of row r12); 0.06 µg/mL (≈ 0.085 µM) in test [3] (strain of row r13); 0.12 µg/mL (≈ 0.17 µM) in test [3] (strain of row r14); 0.5 µg/mL (≈ 0.709 µM) in [3] (strain of row r15); 0.03 µg/mL (≈ 0.0425 µM) in test [8]; 0.25 µg/mL (≈ 0.354 µM) in test [4]. Besides, the MIC was 0.12 µg/mL (≈ 0.17 µM) in test [5] (KPC3, KPC-3, read-out: MIC) and 0.0149 µg/mL (≈ 0.0211 µM) in test [7] (KPC-2, TEM-1, read-out: MIC).
Consider `Nc1nc(/C(=N/OC2(C(=O)O)CC2)C(=O)N[C@H]2CON(C3(C(=O)O)C[C@H](N4C(=O)c5cc(O)c(O)cc5C4=O)C(=O)O3)C2=O)cs1` (stereo partly drawn) [Cmpd 1, (4S)-2-[(4S)-4-{[(2Z)-2-(2-amino-1,3-thiazol-4-yl)-2-{[(1-carboxycyclopropyl)oxy]imino}acetyl]amino}-3-oxo-1,2-oxazolidin-2-yl]-4-(5,6-dihydroxy-1,3-dioxo-1,3-dihydro-2H-isoindol-2-yl)-5-oxooxolane-2-carboxylic acid], for which the MIC in test [1] worked out at 0.5 µg/mL (≈ 0.757 µM); in [1] (strain of row r7), 2 µg/mL (≈ 3.03 µM); in test [1] (strain of row r20), 0.25 µg/mL (≈ 0.378 µM); in test [2], 0.5 µg/mL (≈ 0.757 µM); in test [3] (strain of row r10), 0.015 µg/mL (≈ 0.0227 µM); in test [3] (strain of row r11), 0.25 µg/mL (≈ 0.378 µM). Also, the MIC in test [3] (strain of row r12) came to 0.5 µg/mL (≈ 0.757 µM); in test [3] (strain of row r13) it was 0.06 µg/mL (≈ 0.0908 µM); in [3] (strain of row r14) it was 0.06 µg/mL (≈ 0.0908 µM); in [3] (strain of row r15) it was 0.12 µg/mL (≈ 0.182 µM); in test [8], 0.0149 µg/mL (≈ 0.0226 µM); in test [4], 0.03 µg/mL (≈ 0.0454 µM). In addition, the MIC in [5] (KPC3) came out at 0.0149 µg/mL (≈ 0.0226 µM); in test [9] it was 0.0149 µg/mL (≈ 0.0226 µM); in test [7] it was 0.0149 µg/mL (≈ 0.0226 µM); in test [10] it was 0.03 µg/mL (≈ 0.0454 µM).
